Values quoted from earlier work as cited in paper PMC9395488, “First-in-human study of IM156, a novel potent biguanide oxidative phosphorylation (OXPHOS) inhibitor, in patients with advanced solid tumors” (Investigational New Drugs, 2022).

Legend:
[1] = system: patients (pts) with advanced solid tumors; conditions: cited from earlier work
A549 = system: A549; design: method as in ImmunoMet, 2018; conditions: in A549; ref ImmunoMet, 2018; read-out: OXPHOS inhibition IC50; cited from earlier work
OXPHOS = system: OXPHOS; design: method as in ImmunoMet, 2018; conditions: at the same concentration; ref ImmunoMet, 2018; cited from earlier work
glioblastoma (GSC11) = system: glioblastoma (GSC11); design: method as in ImmunoMet, 2018; conditions: glioblastoma animal model, control group 47 days; ref ImmunoMet, 2018; cited from earlier work
Glioblastoma cells = system: Glioblastoma cells; design: method as in ImmunoMet, 2018; conditions: 15 µM IM156, 500 µM temozolomide, ref ImmunoMet, 2018; cited from earlier work

With `Cc1nc(-c2nc(-c3ccc(OC(F)(F)F)cc3)no2)nn1Cc1cccc(N2CCC(S(C)(=O)=O)CC2)c1` [IACS-010759] as the compound, how does the “patients with PR, percent” value [1] read?
The value was 5%.

What about the “patients with SD” value [1] of the same compound?
The value was 8 patients.

What about the “patients with SD, percent” value [1] of the same compound?
The value was 38%.

What about the “Grade ≥ 3 AEs, percent of patients” value ([1]; human, in vivo) of the same compound?
The value was 43%.

And the “diarrhea of any grade, percent of patients” value ([1]; human, in vivo)?
Its value is 10%.

And the “elevations of blood lactate, percent of patients” value ([1]; human, in vivo)?
The value was 71%.

What about the “nausea of any grade, percent of patients” value ([1]; human, in vivo) of the same compound?
Its value is 67%.

And the “vomiting of any grade, percent of patients” value ([1]; human, in vivo)?
The value was 29%.

And the “patients with PR” value ([1]; patient with prostate cancer)?
Its value is “one”.

With `CN(C)C(=N)N=C(N)N` [metformin, reference compound] as the compound, how does the IC50 (A549) read?
The IC50 was roughly 500 µM.

Which “time until OXPHOS inhibition starts to show” value (OXPHOS) does the source give for `[H]/N=C(/N)N/C(=N/[H])NCCc1ccccc1` [phenformin, reference compound] here?
Its value is no less than 6 h.

Which median survival time (glioblastoma (GSC11)) does the source give for `Cn1nnc2c(C(N)=O)ncn2c1=O` [temozolomide, reference compound] here?
Its median survival time is 58 days.

And the neurosphere size (Glioblastoma cells)?
The neurosphere size was “decreased”.
